PubChem BioAssay (NCI)
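These data come from cells grown in 96-well plates and exposed to compound for 48 hours at five concentrations. GI50 is the concentration that inhibits growth by half. TGI is the concentration that stops growth completely.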

Assays:
Experiment in all cases: NCI tumour cell line growth inhibition, 48 h
[1] = tested on: DU-145 prostate
[2] = tested on: MDA-MB-435
[3] = tested on: SF-295 CNS
[4] = tested on: NCI-H460 lung
[5] = tested on: COLO 205 colon
[6] = tested on: SN12C renal
[7] = tested on: SK-MEL-5 melanoma
[8] = tested on: UO-31 renal
[9] = tested on: M14 melanoma
[10] = tested on: SF-539 CNS
[11] = tested on: CAKI-1 renal
[12] = tested on: T-47D breast
[13] = tested on: SW-620 colon
[14] = tested on: A498 renal
[15] = tested on: NCI-H522 lung
[16] = tested on: EKVX NSCLC
[17] = tested on: ACHN renal
[18] = tested on: NCI/ADR-RES ovarian
[19] = tested on: A549 NSCLC
[20] = tested on: SNB-19 CNS
[21] = tested on: SK-OV-3 ovarian
[22] = tested on: HCT-116 colon
[23] = tested on: MCF7 breast
[24] = tested on: MOLT-4 leukemia
[25] = tested on: OVCAR-4 ovarian
[26] = tested on: K-562 leukemia
[27] = tested on: PC-3 prostate
[28] = tested on: SF-268 CNS
[29] = tested on: HCC-2998 colon
[30] = tested on: OVCAR-3 ovarian
[31] = tested on: OVCAR-5 ovarian
[32] = tested on: TK-10 renal
[33] = tested on: UACC-257 melanoma
[34] = tested on: SNB-75 CNS
[35] = tested on: HOP-62 NSCLC
[36] = tested on: HS 578T breast
[37] = tested on: UACC-62 melanoma
[38] = tested on: SK-MEL-28 melanoma
[39] = tested on: OVCAR-8 ovarian
[40] = tested on: SK-MEL-2 melanoma
[41] = tested on: HOP-92 NSCLC
[42] = tested on: NCI-H23 lung
[43] = tested on: HL-60(TB) leukemia
[44] = tested on: RPMI-8226 leukemia
[45] = tested on: HT29 colon
[46] = tested on: KM12 colon
[47] = tested on: U251 CNS
[48] = tested on: BT-549 breast
[49] = tested on: NCI-H226 lung
[50] = tested on: LOX IMVI melanoma
[51] = tested on: 786-0 renal
[52] = tested on: IGROV1 ovarian
[53] = tested on: MALME-3M melanoma
[54] = tested on: MDA-MB-231 breast
[55] = tested on: HCT-15 colon
[56] = tested on: SR leukemia
[57] = tested on: RXF 393 renal
[58] = tested on: CCRF-CEM leukemia

O=C(Nc1n[nH]c2cc(-c3ccccc3)ccc12)C1CC1
GI50 [1]: 9.28 µM | TGI [1]: > 25 µM | GI50 [2]: 0.721 µM | TGI [2]: > 25 µM | GI50 [3]: 9.07 µM | TGI [3]: > 25 µM | GI50 [4]: 7.15 µM | TGI [4]: > 25 µM | GI50 [5]: 12.4 µM | TGI [5]: > 25 µM | GI50 [6]: 16.3 µM | TGI [6]: > 25 µM | GI50 [7]: 8.75 µM | TGI [7]: > 25 µM | GI50 [8]: 16.9 µM | TGI [8]: > 25 µM | GI50 [9]: 15.4 µM | TGI [9]: > 25 µM | GI50 [10]: 13 µM | TGI [10]: > 25 µM | GI50 [11]: 9.36 µM | TGI [11]: > 25 µM | GI50 [12]: 17.8 µM | TGI [12]: > 25 µM | GI50 [13]: 4.77 µM | TGI [13]: > 25 µM | GI50 [14]: 16.1 µM | TGI [14]: > 25 µM | GI50 [15]: 1.29 µM | TGI [15]: > 25 µM | GI50 [16]: 24.4 µM | TGI [16]: > 25 µM | GI50 [17]: > 25 µM | TGI [17]: > 25 µM | GI50 [18]: 1.79 µM | TGI [18]: > 25 µM | GI50 [19]: 11.6 µM | TGI [19]: > 25 µM | GI50 [20]: > 19.8 µM | TGI [20]: > 25 µM | GI50 [21]: 14.2 µM | TGI [21]: > 25 µM | GI50 [22]: 6.56 µM | TGI [22]: > 25 µM | GI50 [23]: 3.95 µM | TGI [23]: > 25 µM | GI50 [24]: > 16.6 µM | TGI [24]: > 25 µM | GI50 [25]: > 25 µM | TGI [25]: > 25 µM | GI50 [26]: 1.42 µM | TGI [26]: > 25 µM | GI50 [27]: 10.5 µM | TGI [27]: > 25 µM | GI50 [28]: > 21.2 µM | TGI [28]: > 25 µM | GI50 [29]: 8.07 µM | TGI [29]: > 25 µM | GI50 [30]: 5.34 µM | TGI [30]: 16.9 µM | GI50 [31]: > 25 µM | TGI [31]: > 25 µM | GI50 [32]: > 25 µM | TGI [32]: > 25 µM | GI50 [33]: > 25 µM | TGI [33]: > 25 µM | GI50 [34]: > 20.9 µM | TGI [34]: > 25 µM | GI50 [35]: > 25 µM | TGI [35]: > 25 µM | GI50 [36]: 18.9 µM | TGI [36]: > 25 µM | GI50 [37]: > 25 µM | TGI [37]: > 25 µM | GI50 [38]: > 22.1 µM | TGI [38]: > 25 µM | GI50 [39]: 14.5 µM | TGI [39]: > 25 µM | GI50 [40]: > 25 µM | TGI [40]: > 25 µM | GI50 [41]: > 25 µM | TGI [41]: > 25 µM | GI50 [42]: 16.8 µM | TGI [42]: > 25 µM | GI50 [43]: 6.34 µM | TGI [43]: > 20.7 µM | GI50 [44]: 9.58 µM | TGI [44]: > 25 µM | GI50 [45]: 2.31 µM | TGI [45]: > 25 µM | GI50 [46]: 2.11 µM | TGI [46]: > 25 µM | GI50 [47]: 13.6 µM | TGI [47]: > 25 µM | GI50 [48]: 15.5 µM | TGI [48]: > 25 µM | GI50 [49]: > 25 µM | TGI [49]: > 25 µM | GI50 [50]: 16 µM | TGI [50]: > 25 µM | GI50 [51]: > 25 µM | TGI [51]: > 25 µM | GI50 [52]: 19.6 µM | TGI [52]: > 25 µM | GI50 [53]: > 17.7 µM | TGI [53]: > 25 µM | GI50 [54]: 14.7 µM | TGI [54]: > 25 µM | GI50 [55]: 4.03 µM | TGI [55]: > 25 µM | GI50 [56]: 3.31 µM | TGI [56]: > 25 µM | GI50 [57]: 7.91 µM | TGI [57]: > 25 µM | GI50 [58]: 8.59 µM | TGI [58]: > 25 µM

O=S(=O)(c1ccc(NC(=S)NC23CC4CC(CC(C4)C2)C3)cc1)N1CCCCC1
GI50 [1]: 4.09 µM | TGI [1]: > 100 µM | GI50 [2]: 3.49 µM | TGI [2]: > 100 µM | GI50 [4]: 3.35 µM | TGI [4]: > 100 µM | GI50 [5]: 1.82 µM | TGI [5]: 3.22 µM | GI50 [6]: 3.23 µM | TGI [6]: > 100 µM | GI50 [7]: 1.75 µM | TGI [7]: 3.31 µM | GI50 [8]: 2.82 µM | TGI [8]: > 100 µM | GI50 [9]: 3.36 µM | TGI [9]: 22.7 µM | GI50 [10]: 4.19 µM | TGI [10]: > 100 µM | GI50 [11]: 3.06 µM | TGI [11]: > 100 µM | GI50 [12]: 3.28 µM | TGI [12]: > 100 µM | GI50 [13]: 3.82 µM | TGI [13]: > 100 µM | GI50 [14]: 2.04 µM | TGI [14]: 7.79 µM | GI50 [15]: 2.7 µM | TGI [15]: 6.62 µM | GI50 [17]: 3.12 µM | TGI [17]: > 100 µM | GI50 [18]: 3.46 µM | TGI [18]: > 100 µM | GI50 [19]: 3.07 µM | TGI [19]: > 100 µM | GI50 [20]: 4.02 µM | TGI [20]: > 100 µM | GI50 [21]: 2.98 µM | TGI [21]: 9.26 µM | GI50 [22]: 3.34 µM | TGI [22]: > 100 µM | GI50 [23]: 3.18 µM | TGI [23]: > 100 µM | GI50 [24]: 3.24 µM | TGI [24]: 11.4 µM | GI50 [25]: 4.01 µM | TGI [25]: > 100 µM | GI50 [26]: 3.6 µM | TGI [26]: > 100 µM | GI50 [27]: 2.55 µM | TGI [27]: 8.94 µM | GI50 [28]: 4.12 µM | TGI [28]: > 100 µM | GI50 [29]: 3.29 µM | TGI [29]: 19.9 µM | GI50 [30]: 3.51 µM | TGI [30]: 21.1 µM | GI50 [31]: 3.53 µM | TGI [31]: > 100 µM | GI50 [32]: 3.27 µM | TGI [32]: 64.1 µM | GI50 [33]: 2.49 µM | TGI [33]: 6.8 µM | GI50 [35]: 3.67 µM | TGI [35]: > 100 µM | GI50 [36]: 4.87 µM | TGI [36]: > 100 µM | GI50 [37]: 3.22 µM | TGI [37]: > 100 µM | GI50 [38]: 5.23 µM | TGI [38]: > 100 µM | GI50 [39]: 3.22 µM | TGI [39]: > 100 µM | GI50 [40]: 3.29 µM | TGI [40]: 7.39 µM | GI50 [41]: 1.63 µM | TGI [41]: 5 µM | GI50 [42]: 3.5 µM | TGI [42]: > 100 µM | GI50 [43]: 2.65 µM | TGI [43]: 6.24 µM | GI50 [44]: 2.15 µM | TGI [44]: 5.86 µM | GI50 [45]: 2.49 µM | TGI [45]: 5.84 µM | GI50 [46]: 3.65 µM | TGI [46]: 42.2 µM | GI50 [47]: 2.92 µM | TGI [47]: 13.3 µM | GI50 [48]: 3 µM | TGI [48]: 9.4 µM | GI50 [49]: 4.05 µM | TGI [49]: > 100 µM | GI50 [50]: 3.71 µM | TGI [50]: > 100 µM | GI50 [51]: 4.14 µM | TGI [51]: > 100 µM | GI50 [52]: 4.63 µM | TGI [52]: > 100 µM | GI50 [53]: 2.76 µM | TGI [53]: 8.3 µM | GI50 [54]: 2.41 µM | TGI [54]: 5.6 µM | GI50 [55]: 3.22 µM | TGI [55]: > 100 µM | GI50 [56]: 2.69 µM | TGI [56]: > 100 µM | GI50 [57]: 2.37 µM | TGI [57]: 6.6 µM | GI50 [58]: 3.13 µM | TGI [58]: > 100 µM
